Experimental data: publication PMC6449294, “SNAPshots of the MCHR1: a Comparison Between the PET-Tracers [^18F]FE@SNAP and [^11C]SNAP-7941” (Molecular Imaging and Biology, 2018)

Experiments:
[1] = set-up: method as in earlier work; settings: previous studies; ref 30 and 34 (table), 32 and 36; cited from earlier work
[2] = target: T1, human MCHR1 (Homo sapiens, UniProt Q99705); experiment: Kinetic real-time cell-binding study (LigandTracer) on CHO-K1-hMCHR1 cells; type: cell-based; settings: for observed association rate constant (kobs): CHO-K1-hMCHR1 cells, ambient temperature, radiotracer 0.05–1000 nM, mean ± SEM; for accumulation on CHO-K1-hMCHR1 cells: real-time cell binding, result in words
T1 construct: host or cells: CHO-K1
Method: (§1) Kinetic real-time cell-binding studies were performed on adherent Chinese hamster ovary (CHO-K1) cells (negative control) and CHO-K1 cells stably expressing the human MCHR1 or MCHR2 (PerkinElmer®; Waltham, MA, USA) with [^11C]SNAP-7941 and [^18F]FE@SNAP as previously reported. The cells were cultured in Ham’s F-12 medium (Gibco®, Life Technologies) with additives (1 % penicillin-streptomycin-glutamine (PSG), 10 % fetal bovine serum (FBS), and 300-μg/m Geneticin (G-418)) and incubated in a humidified 5 % CO2 atmosphere at 37 °C. For the preparation of the binding experiment, approximately 10^6 cells were seeded as a monolayer on the bottom of a tilted cell culture dish (100 mm × 20 mm, CELLSTAR®, Greiner Bio-One) and incubated with 2-ml medium for 24 h to avoid a spreading of the cells over the whole Petri dish. In the next step, the medium was discarded and the Petri dish was placed in a horizontal position with 10-ml medium for additional 24 h. Afterwards, the binding experiment was performed at ambient temperature with LigandTracer® Yellow (Ridgeview Instruments AB, Uppsala, Sweden) using 3-ml fresh medium (Ham’s F-12, serum-free). Unspecific radiotracer uptake was determined with native CHO-K1 cells. The experiments were initiated with baseline measurements for 10–15 min followed by radioligand incubation of [^11C]SNAP-7941 and [^18F]FE@SNAP. Binding to the seeded cells was ensured by adding different concentrations of the radiotracer (0.05–1000 nM). Association-time curves were monitored in real-time until the binding equilibrium was achieved. The observed rate constant of the association reaction (kobs) was determined using non-linear regression curve fitting algorithms implemented in GraphPad Prism 6.0 (GraphPad Software, Inc., San Diego, CA, USA), as previously reported. Cell survival was continuously examined using the perimeter trace (signal vs. dish position) of the LigandTracer® 1.0.1 software (Ridgeview Instruments AB, Uppsala, Sweden).

[3] = system: P-gp/BCRP; experiment: Small animal PET of rat brain, vehicle vs pretreatment with P-gp/BCRP inhibitor TQD; type: in vivo; settings: for increase of brain uptake in TQD blocking group vs vehicle: rats, TQD 15 mg/kg 60 min before radiotracer, PET
Method: Ten-week-old male rats (412 ± 58 g, Sprague-Dawley, HIM:OFA, n = 30) and 12-week-old male mice (24 ± 6 g, BALB/cAnNRj, n = 7) were purchased from the Division of Laboratory Animal Science and Genetics, Himberg, Austria. Animals were kept under conventional housing conditions (22 ± 1 °C; 40–70 % humidity) with food and water supply ad libitum and 12-h day/night cycle. All animals were treated according to the European Union rules on animal care and respective animal experiments were approved by the Austrian Ministry of Sciences, Research and Economy (BMWFW-66.009/0029-WF/V/3b/20159). For in vivo imaging, animals were anesthetized using 1.5–2 % isoflurane mixed with oxygen (1.5–2 l/min) to avoid movement during the examination. Anesthesia as well as vital parameters were monitored during the time interval of PET acquisition. Radioligands and non-labeled compounds were administered intravenously via the lateral tail vein.
Anesthetized rats and mice were immobilized in a multimodal animal carrier unit (MACU; medres®—medical research GmbH, Cologne, Germany). The body temperature was preserved at 37 °C throughout the whole experiment. Rats received either [^11C]SNAP-7941 or [^18F]FE@SNAP, followed by an injection of (±)-SNAP-7941 (15-mg/kg body weight; displacement study; n = 4 for each radiotracer) or the respective solvent serving as the vehicle (baseline condition; n = 4 for each radiotracer). The MCHR1 antagonist, (±)-SNAP-7941, and the vehicle were administered either 15 ([^11C]SNAP-7941) or 20 min ([^18F]FE@SNAP) after the radiotracer application via the lateral tail vein. To investigate a potential binding to the P-glycoprotein (P-gp) and/or breast cancer resistance protein (BCRP) brain efflux transporter system, rats as well as mice were pretreated either with the P-gp/BCRP inhibitor TQD (15 mg/kg body weight; P-gp/BCRP inhibition group; rats: n = 4 for each radiotracer; mice: n = 4 for [^18F]FE@SNAP) or the respective solvent (baseline condition; rats: n = 3 for each radiotracer; mice: n = 3 for [^18F]FE@SNAP)). […]

[4] = system: native CHO-K1 cells; experiment: Kinetic real-time cell-binding study on native CHO-K1 cells (negative control, unspecific uptake); type: cell-based, Chinese hamster; settings: result in words
Method: as §1, with “Afterwards, the binding experiment was performed at ambient temperature with LigandTracer® Yellow (Ridgeview Instruments AB, Uppsala, Sweden) using 3-ml fresh medium (Ham’s F-12, serum-free).” left out, “The experiments were initiated with baseline measurements for 10–15 min followed by radioligand incubation of [^11C]SNAP-7941 and [^18F]FE@SNAP. Binding to the seeded cells was ensured by adding different concentrations of the radiotracer (0.05–1000 nM).” left out, “Cell survival was continuously examined using the perimeter trace (signal vs. dish position) of the LigandTracer® 1.0.1 software (Ridgeview Instruments AB, Uppsala, Sweden).” left out

[5] = target: T2, human MCHR2 (Homo sapiens, UniProt Q969V1); experiment: Kinetic real-time cell-binding study (LigandTracer) on CHO-K1-hMCHR2 cells; type: cell-based; settings: for Selectivity over MCHR2: CHO-K1-hMCHR1 vs CHO-K1-hMCHR2 living cells, Yes/No; for accumulation on CHO-K1-hMCHR2 cells: real-time cell binding, result in words
T2 construct: host or cells: CHO-K1
Method: as §1

T2 sequence (Q969V1 whole entry): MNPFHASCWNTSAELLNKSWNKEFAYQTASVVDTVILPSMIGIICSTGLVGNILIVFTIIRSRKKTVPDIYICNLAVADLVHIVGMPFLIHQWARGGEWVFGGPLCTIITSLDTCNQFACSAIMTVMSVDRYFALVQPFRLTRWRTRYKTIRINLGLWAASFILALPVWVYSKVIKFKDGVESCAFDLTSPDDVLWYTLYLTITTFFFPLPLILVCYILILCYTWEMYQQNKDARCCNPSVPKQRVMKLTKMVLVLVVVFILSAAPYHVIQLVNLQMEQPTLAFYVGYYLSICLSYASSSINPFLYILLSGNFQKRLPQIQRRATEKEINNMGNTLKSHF
T1 sequence (Q99705 whole entry): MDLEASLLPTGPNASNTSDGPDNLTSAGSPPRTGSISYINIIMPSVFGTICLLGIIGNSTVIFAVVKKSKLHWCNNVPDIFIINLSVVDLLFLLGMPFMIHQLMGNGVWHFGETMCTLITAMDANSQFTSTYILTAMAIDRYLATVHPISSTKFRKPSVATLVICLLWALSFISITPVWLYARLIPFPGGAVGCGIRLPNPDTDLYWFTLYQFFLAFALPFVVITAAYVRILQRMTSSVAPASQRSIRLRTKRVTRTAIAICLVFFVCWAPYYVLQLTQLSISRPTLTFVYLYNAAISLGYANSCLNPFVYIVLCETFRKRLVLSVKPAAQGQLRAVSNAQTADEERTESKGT

Compound	Lipophilicity (logD) [1]	observed association rate constant (kobs) [2] [min⁻¹]	accumulation on CHO-K1-hMCHR1 cells [2]	P-gp/BCRP substrate status ([3]; rat brain PET after TQD pretreatment, result in words)	increase of brain uptake in TQD blocking group vs vehicle [3] [times]	accumulation on native CHO-K1 cells [4]	Selectivity over MCHR2 [5]	accumulation on CHO-K1-hMCHR2 cells [5]	observed association rate constant (kobs) ([5]; CHO-K1-hMCHR2 cells, ambient temperature, radiotracer 0.05–1000 nM, mean ± SEM) [min⁻¹]
COCC1=C(C(=O)O[11CH3])C(c2ccc(F)c(F)c2)N(C(=O)NCCCN2CCC(c3cccc(NC(C)=O)c3)CC2)C(=O)N1 (stereo not shown) [[^11C]SNAP-7941]	3.29 ± 0.01	0.0629 ± 0.0020	high accumulation	P-gp/BCRP substrate	3.04	negligible accumulation	Yes	negligible accumulation	–
COCC1=C(C(=O)OCC[18F])C(c2ccc(F)c(F)c2)N(C(=O)NCCCN2CCC(c3cccc(NC(C)=O)c3)CC2)C(=O)N1 (stereo not shown) [[^18F]FE@SNAP]	3.83 ± 0.1	0.0859 ± 0.0028	high accumulation	–	2.45	negligible accumulation	No	exhibited accumulation	0.0918 ± 0.0031
